Key:
[1] = tested on: iPS cell-derived cardiomyocytes; test: Viability of cardiomyocytes after treatment with the TAOK1 inhibitor and doxorubicin (PrestoBlue); type: cell-based, human; settings: C43 final concentration 10 nM, added simultaneously with doxorubicin; measured 3 days later; FIG. 4
Description: The iPS cell-derived cardiomyocytes were seeded on the 96-well plate coated with the growth factor reduced matrigel, after 5 days or more from the seeding, the TAOK1 inhibitor C43 (MedChemExpress) and the doxorubicin were simultaneously added, and 3 days later, the cell viability was measured with SpectraMaxM2e using the PrestoBlue reagent.

[2] = tested on: iPS cell-derived cardiomyocytes; test: Oxygen consumption measurement (Seahorse XF Cell Mito Stress Test); type: cell-based, human; settings: doxorubicin 1 μM for 3 hours vs 0 μM; FIG. 7
Description: TAOK1 knock-out cells were obtained from the iPS cell-derived cardiomyocytes in a similar manner as in Test Example 2-1. The obtained cells were treated with the doxorubicin at 0 μM or 1 μM for 3 hours, and oxygen consumption was measured using a Seahorse XFe 96 Flux Analyzer (Agilent) and a Seahorse XF Cell Mito Stress Test Kit (Agilent).

oxygen consumption of the cardiomyocytes [2] | Compound | cell viability (myocardial cell death caused by the doxorubicin) [1]
– | O=C(CNC(=O)c1ccc(-c2ccccc2)cc1)NC1CCCc2ccccc21 (centres unmarked) [Entry C43, N-[2-oxo-2-(1,2,3,4-tetrahydronaphthalen-1-ylamino)ethyl]biphenyl 4-carboxamide] | inhibit the myocardial cell death caused by the doxorubicin
significantly reduced | COc1cccc2c1C(=O)c1c(O)c3c(c(O)c1C2=O)C[C@@](O)(C(=O)CO)C[C@@H]3O[C@H]1C[C@H](N)[C@H](O)[C@H](C)O1 [doxorubicin] | –
